According to paper PMC6941823, “A dispensable paralog of succinate dehydrogenase subunit C mediates standing resistance towards a subclass of SDHI fungicides in Zymoseptoria tritici” (PLoS Pathogens, 2019):
Read-outs that look alike come from different tables or passages of the source.

Key:
[1] = target: WT-SQR (SDHC), IPO323 mitochondria (Zymoseptoria tritici, UniProt F9X9V6+F9XH52+O42772); assay: Succinate-quinone (SQR) SDHI sensitivity assay on purified mitochondria, IPO323; format: biochemical; settings: mitochondria of IPO323; mean of three determinations ± SD; read-out: Succinate-quinone IC50, IPO323 (SDHC)
Description: (§1) Succinate-ubiquinone oxidoreductase (SQR) inhibition assays were performed on mitochondrial extracts from a panel of strains that were (i) either carrying a unique C-subunit encoding gene (ZtSDHC1, ZtSDHC1_A84I or Zt-SDHC3), or (ii) carrying two C-subunit encoding genes ZtSDHC1 and ZtSDHC3 (Table 1).
(§2) Biomass production, mitochondrial extraction and purification were performed as described in [14]. Succinate: ubiquinone/DCPIP sensitivity tests were performed as described in [14] with minor modification. The different mitochondrial suspensions were adjusted to similar initial velocity (1 OD595nm hour^-1) and inhibitor concentrations ranged between 0.047nM and 50μM with uniform 4x dilution steps (11 concentrations + DMSO control). Calculated absorbance slopes (OD/min) were used for IC50 calculations using GraphPad Prism 6.07 software non-linear curve fitting against log inhibitor concentrations.

[2] = target: C_A84I-SQR (SDHC_A84I), IPO323_Flu21 mitochondria (Zymoseptoria tritici, UniProt F9X9V6+F9XH52+O42772, A84I); assay: Succinate-quinone (SQR) SDHI sensitivity assay on purified mitochondria, IPO323_Flu21; format: biochemical; settings: for RF (resistance factor), IPO323_Flu21 (SDHC_A84I): IC50 ratio compared to IPO323 values; for IC50: mitochondria of UV mutant IPO323_Flu21, mean of three ± SD
Description: as §1, §2

[3] = target: SQR of 06STD024 (SDHC / altC) mitochondria (Zymoseptoria tritici, UniProt A0A1X7RQW2+F9X9V6+F9XH52+O42772); assay: Succinate-quinone (SQR) SDHI sensitivity assay on purified mitochondria, 06STD024; format: biochemical; settings: for RF (resistance factor), 06STD024 (SDHC / altC): IC50 ratio compared to IPO323 values; for IC50: mitochondria of field isolate 06STD024, mean of three ± SD
Description: as §1
(§3) Biomass production, mitochondrial extraction and purification were performed as described in [14]. Succinate: ubiquinone/DCPIP sensitivity tests were performed as described in [14] with minor modification.

[4] = target: SQR (SDHC) of D024 SDHC3 KO mitochondria (Zymoseptoria tritici, UniProt F9X9V6+F9XH52+O42772); assay: Succinate-quinone (SQR) SDHI sensitivity assay on purified mitochondria, 06STD024 SDHC3 KO; format: biochemical; settings: for RF (resistance factor), D024 SDHC3 KO (SDHC): IC50 ratio compared to IPO323 values; for IC50: mitochondria of 06STD024 ZtSDHC3 deletion mutant, mean of three ± SD
Description: as §1, §2

[5] = target: altC-SQR (altC) of D024 SDHC1 KO mitochondria (Zymoseptoria tritici, UniProt A0A1X7RQW2+F9X9V6+O42772); assay: Succinate-quinone (SQR) SDHI sensitivity assay on purified mitochondria, 06STD024 SDHC1 KO; format: biochemical; settings: for RF (resistance factor), D024 SDHC1 KO (altC): IC50 ratio compared to IPO323 values; for IC50: mitochondria of 06STD024 ZtSDHC1 deletion mutant (pure altC-SQR), mean of three ± SD
Description: as §1, §3

[6] = test system: SQR (SDHC / altC) of IPO323 pTet::SDHC3 transformant, induced; assay: Succinate-quinone (SQR) SDHI sensitivity assay on purified mitochondria, IPO323 pTet::SDHC3 induced; format: biochemical, Zymoseptoria tritici; settings: for RF (resistance factor), pTet Induced (SDHC / altC): IC50 ratio compared to IPO323 values; for IC50: IPO323 pTet::SDHC3 transformant grown in the absence of doxycycline, mean of three ± SD
Description: as §1, §3

[7] = target: SQR (SDHC / altC) of IPO323 pTet::SDHC3 transformant, repressed (Zymoseptoria tritici, UniProt A0A1X7RQW2+F9X9V6+F9XH52+O42772); assay: Succinate-quinone (SQR) SDHI sensitivity assay on purified mitochondria, IPO323 pTet::SDHC3 repressed; format: biochemical; settings: for RF (resistance factor), pTet Repressed (SDHC / altC): IC50 ratio compared to IPO323 values; for IC50: IPO323 pTet::SDHC3 transformant grown in presence of 30 mg.L^-1 doxycycline, mean of three ± SD
Description: as §1, §3

[8] = test system: Zymoseptoria tritici field and genetically modified strains; assay: Liquid culture assay for fungicide sensitivity determination; format: cell-based; settings: liquid culture sensitivity, read-out: EC50 (nM) Mean
Description: Sensitivity towards commercial fungicides was determined for a set of 99 SHA-SDHI-naïve Z. tritici field isolates sampled in Europe between 2006 and 2009. The EC50 of these isolates was determined in liquid growth assays and the data obtained compared for each possible pair of SDHI fungicides (cross-resistance (XR) plots, Fig 1). […] Comparative succinate-quinone reductase (SQR) enzyme inhibition tests were performed with mitochondria extracted from a panel of SHA-SDHIs tolerant and sensitive isolates.
In order to characterize in more depth the mechanisms driving sensitivity differences across the isolates, a subset of eight isolates carrying the ZtSDHC3 gene was analyzed for their sensitivity to SDHIs, alt-SDHC expression and splicing patterns. Liquid culture growth sensitivity tests were performed to determine EC50s for this set of isolates towards a wide range of commercial and research SDHIs (S5 Table).
Pre-culture of the inoculum and fungicide sensitivity tests were performed following previously described procedures. Different ranges of inhibitor concentrations were used for population monitoring and for the detailed phenotyping of a selected set of individual field isolates and genetically modified strains. For fungicide sensitivity monitoring of European field populations, final inhibitors concentrations were between 100 mg.L^-1 and 0.0001 mg.L^-1 with uniform 10x dilution steps (7 inhibitor concentrations + DMSO control). For refined sensitivity analysis of a smaller panel of isolates final inhibitor concentrations ranged between 0.5 mM and 0.47 nM with uniform 4x dilution factor steps (11 inhibitor concentrations+ DMSO control).

Chain of SQR of 06STD024 (SDHC / altC) mitochondria (A0A1X7RQW2 36-181): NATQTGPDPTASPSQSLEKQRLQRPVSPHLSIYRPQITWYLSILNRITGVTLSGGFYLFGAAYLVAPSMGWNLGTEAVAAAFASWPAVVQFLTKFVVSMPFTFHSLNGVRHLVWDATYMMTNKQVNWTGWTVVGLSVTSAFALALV
Chain of SQR of 06STD024 (SDHC / altC) mitochondria (O42772 19-297): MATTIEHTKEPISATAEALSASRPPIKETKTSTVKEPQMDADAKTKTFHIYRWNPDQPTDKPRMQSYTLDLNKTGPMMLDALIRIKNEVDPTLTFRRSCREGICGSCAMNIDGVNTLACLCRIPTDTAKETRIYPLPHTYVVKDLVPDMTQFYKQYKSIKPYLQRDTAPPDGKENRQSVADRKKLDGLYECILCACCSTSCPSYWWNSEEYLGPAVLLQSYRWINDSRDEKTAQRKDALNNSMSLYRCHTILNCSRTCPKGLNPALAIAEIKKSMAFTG
Chain of SQR of 06STD024 (SDHC / altC) mitochondria (F9X9V6 1-193): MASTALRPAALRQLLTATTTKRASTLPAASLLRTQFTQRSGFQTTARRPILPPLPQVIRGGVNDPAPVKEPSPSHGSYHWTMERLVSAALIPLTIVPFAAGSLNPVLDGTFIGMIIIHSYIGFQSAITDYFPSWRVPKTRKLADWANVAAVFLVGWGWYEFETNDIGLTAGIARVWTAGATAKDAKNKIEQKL
Chain of SQR of 06STD024 (SDHC / altC) mitochondria (F9XH52 44-187): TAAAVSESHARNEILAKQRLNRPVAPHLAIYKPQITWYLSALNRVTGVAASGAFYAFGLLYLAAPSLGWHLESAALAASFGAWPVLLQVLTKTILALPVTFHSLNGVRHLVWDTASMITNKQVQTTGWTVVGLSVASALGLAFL
Chain of SQR of 06STD024 (SDHC / altC) mitochondria (F9WWR1 29-643 partner): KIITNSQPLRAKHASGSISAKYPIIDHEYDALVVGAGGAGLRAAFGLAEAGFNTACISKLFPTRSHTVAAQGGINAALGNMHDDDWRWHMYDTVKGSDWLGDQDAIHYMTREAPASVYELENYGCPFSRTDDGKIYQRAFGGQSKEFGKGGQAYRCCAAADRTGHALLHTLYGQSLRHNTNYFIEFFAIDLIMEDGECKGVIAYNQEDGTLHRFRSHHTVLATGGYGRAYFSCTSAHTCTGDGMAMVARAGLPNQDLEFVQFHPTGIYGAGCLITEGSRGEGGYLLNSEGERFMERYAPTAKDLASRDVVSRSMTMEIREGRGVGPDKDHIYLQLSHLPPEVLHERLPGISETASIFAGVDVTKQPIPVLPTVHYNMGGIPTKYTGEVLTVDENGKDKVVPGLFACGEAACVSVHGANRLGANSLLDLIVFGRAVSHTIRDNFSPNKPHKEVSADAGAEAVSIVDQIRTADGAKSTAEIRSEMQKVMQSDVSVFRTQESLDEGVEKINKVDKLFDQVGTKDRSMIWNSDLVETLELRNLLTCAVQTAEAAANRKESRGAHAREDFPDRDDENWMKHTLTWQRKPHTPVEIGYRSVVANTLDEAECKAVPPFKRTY
Chain of altC-SQR (altC) of D024 SDHC1 KO mitochondria (A0A1X7RQW2 36-181): as the sequence (A0A1X7RQW2 36-181) above
Chain of altC-SQR (altC) of D024 SDHC1 KO mitochondria (O42772 20-297): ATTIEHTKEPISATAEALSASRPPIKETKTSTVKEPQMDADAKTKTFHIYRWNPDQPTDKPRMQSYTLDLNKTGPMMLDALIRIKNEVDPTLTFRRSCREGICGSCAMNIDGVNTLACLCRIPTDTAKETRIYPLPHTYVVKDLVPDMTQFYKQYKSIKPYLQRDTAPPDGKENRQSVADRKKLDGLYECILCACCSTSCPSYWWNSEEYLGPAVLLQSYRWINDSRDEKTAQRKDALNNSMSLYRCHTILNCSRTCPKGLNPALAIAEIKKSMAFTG
Chain of altC-SQR (altC) of D024 SDHC1 KO mitochondria (F9X9V6 1-193): as the sequence (F9X9V6 1-193) above
Chain of altC-SQR (altC) of D024 SDHC1 KO mitochondria (F9WWR1 41-643 partner): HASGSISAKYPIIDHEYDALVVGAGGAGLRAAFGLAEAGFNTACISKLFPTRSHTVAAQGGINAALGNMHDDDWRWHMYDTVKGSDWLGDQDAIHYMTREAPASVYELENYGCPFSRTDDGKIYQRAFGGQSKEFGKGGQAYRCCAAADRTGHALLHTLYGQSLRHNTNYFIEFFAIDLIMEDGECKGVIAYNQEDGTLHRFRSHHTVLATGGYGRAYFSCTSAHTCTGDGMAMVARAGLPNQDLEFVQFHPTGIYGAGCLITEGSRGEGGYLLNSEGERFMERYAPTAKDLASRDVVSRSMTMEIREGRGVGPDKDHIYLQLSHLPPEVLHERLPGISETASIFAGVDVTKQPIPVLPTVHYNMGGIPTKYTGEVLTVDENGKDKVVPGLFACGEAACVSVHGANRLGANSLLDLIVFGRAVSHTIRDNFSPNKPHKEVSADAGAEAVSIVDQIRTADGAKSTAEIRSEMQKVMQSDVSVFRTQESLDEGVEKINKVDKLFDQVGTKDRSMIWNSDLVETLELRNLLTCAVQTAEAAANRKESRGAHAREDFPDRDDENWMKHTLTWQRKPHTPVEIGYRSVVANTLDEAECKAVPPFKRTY
Chain of C_A84I-SQR (SDHC_A84I), IPO323_Flu21 mitochondria (F9XH52 44-187, stated change not applied): as the sequence (F9XH52 44-187) above
Chain of C_A84I-SQR (SDHC_A84I), IPO323_Flu21 mitochondria (O42772 19-297, stated change not applied): as the sequence (O42772 19-297) above
Chain of C_A84I-SQR (SDHC_A84I), IPO323_Flu21 mitochondria (F9X9V6 whole entry, stated change not applied): as the sequence (F9X9V6 1-193) above
Chain of C_A84I-SQR (SDHC_A84I), IPO323_Flu21 mitochondria (F9WWR1 29-643 partner): as the sequence (F9WWR1 29-643 partner) above

Compound	IC50 [1] [nM]	RF (resistance factor), IPO323_Flu21 (SDHC_A84I) [2]	IC50 [2] [nM]	RF (resistance factor), 06STD024 (SDHC / altC) [3]	IC50 [3] [nM]	RF (resistance factor), D024 SDHC3 KO (SDHC) [4]	IC50 [4] [nM]	RF (resistance factor), D024 SDHC1 KO (altC) [5]	IC50 [5] [nM]	RF (resistance factor), pTet Induced (SDHC / altC) [6]	IC50 [6] [nM]	RF (resistance factor), pTet Repressed (SDHC / altC) [7]	IC50 [7] [nM]	EC50 ([8]; strain 06STD024) [nM]	EC50 ([8]; strain 07STGB009) [nM]	EC50 ([8]; strain 09STD041) [nM]	EC50 ([8]; strain 09STD053) [nM]	EC50 ([8]; strain 09STF011) [nM]	EC50 ([8]; strain 09STF037) [nM]	EC50 ([8]; strain 09STF112) [nM]	also measured
CC(C)C1C2CCC1c1c(NC(=O)c3cn(C)nc3C(F)F)cccc12 (stereo not drawn) [Isopyrazam]	0.8 ± 0.1	6.4	5.2 ± 2.6	3.3	2.6 ± 0.6	0.7	0.6 ± 0.2	2.9	2.4 ± 0.5	2.1	1.7 ± 0.4	1.5	1.2 ± 0.3	108	75.5	116	56	109	46.1	66.2	EC50 ([8]; strain 09STIR20.3): 112 nM; EC50 ([8]; strain Flu21 (SDHC1_A84I)): 785 nM; EC50 ([8]; strain IPO323): 46 nM; EC50 ([8]; strain IPO94269): 72.8 nM; EC50 ([8]; strain KO_SDHC1_T1): 332 nM; EC50 ([8]; strain KO_SDHC1_T3): 293 nM; EC50 ([8]; strain KO_SDHC3_T4): 83.7 nM; EC50 ([8]; strain KO_SDHC3_T13): 96.7 nM; EC50 ([8]; strain pTet::SDHC3_I78A_T1): 60.4 nM; EC50 ([8]; strain pTet::SDHC3_I78A_T5): 120 nM; EC50 ([8]; strain pTet::SDHC3_I78A_T15): 81.1 nM; EC50 ([8]; strain pTet::SDHC3_I78A_T35): 17 nM; EC50 ([8]; strain pTet::SDHC3_T1): 195 nM; EC50 ([8]; strain pTet::SDHC3_T2): 284 nM; EC50 ([8]; strain pTet::SDHC3_T3): 175 nM; EC50 ([8]; strain pTet::SDHC3_T7): 233 nM
Cn1cc(C(=O)Nc2cccc3c2[C@@H]2CC[C@H]3C2=C(Cl)Cl)c(C(F)F)n1 (racemic) [Benzovindiflupyr]	0.7 ± 0.2	1.4	1 ± 0.2	0.8	0.5 ± 0.17	0.8	0.6 ± 0.11	0.9	0.6 ± 0.05	0.8	0.5 ± 0.09	0.8	0.5 ± 0.03	17	15	54	88	96	54	204	EC50 ([8]; strain 09STIR20.3): 147 nM; EC50 ([8]; strain Flu21 (SDHC1_A84I)): 927 nM; EC50 ([8]; strain IPO323): 39 nM; EC50 ([8]; strain IPO94269): 108 nM; EC50 ([8]; strain KO_SDHC1_T1): 59 nM; EC50 ([8]; strain KO_SDHC1_T3): 40 nM; EC50 ([8]; strain KO_SDHC3_T4): 93 nM; EC50 ([8]; strain KO_SDHC3_T13): 90 nM; EC50 ([8]; strain pTet::SDHC3_I78A_T1): 28 nM; EC50 ([8]; strain pTet::SDHC3_I78A_T5): 87 nM; EC50 ([8]; strain pTet::SDHC3_I78A_T15): 47 nM; EC50 ([8]; strain pTet::SDHC3_I78A_T35): 20 nM; EC50 ([8]; strain pTet::SDHC3_T1): 40 nM; EC50 ([8]; strain pTet::SDHC3_T2): 44 nM; EC50 ([8]; strain pTet::SDHC3_T3): 30 nM; EC50 ([8]; strain pTet::SDHC3_T7): 50 nM
Cn1cc(C(=O)Nc2ccccc2-c2cc(F)c(F)c(F)c2)c(C(F)F)n1 [Fluxapyroxad]	4.3 ± 1.1	1.2	5.1 ± 0.7	0.8	3.5 ± 0.3	0.8	3.3 ± 0.8	0.7	3.1 ± 0.4	0.8	3.3 ± 0.6	1.1	4.5 ± 1	83.2	72.2	142	132	119	110	152	EC50 ([8]; strain 09STIR20.3): 295 nM; EC50 ([8]; strain Flu21 (SDHC1_A84I)): 818 nM; EC50 ([8]; strain IPO323): 102 nM; EC50 ([8]; strain IPO94269): 121 nM; EC50 ([8]; strain KO_SDHC1_T1): 438 nM; EC50 ([8]; strain KO_SDHC1_T3): 361 nM; EC50 ([8]; strain KO_SDHC3_T4): 216 nM; EC50 ([8]; strain KO_SDHC3_T13): 144 nM; EC50 ([8]; strain pTet::SDHC3_I78A_T1): 115 nM; EC50 ([8]; strain pTet::SDHC3_I78A_T5): 265 nM; EC50 ([8]; strain pTet::SDHC3_I78A_T15): 145 nM; EC50 ([8]; strain pTet::SDHC3_I78A_T35): 79.5 nM; EC50 ([8]; strain pTet::SDHC3_T1): 148 nM; EC50 ([8]; strain pTet::SDHC3_T2): 129 nM; EC50 ([8]; strain pTet::SDHC3_T3): 102 nM; EC50 ([8]; strain pTet::SDHC3_T7): 197 nM
Cn1cc(C(=O)Nc2ccc(F)cc2-c2ccc(Cl)c(Cl)c2)c(C(F)F)n1 [Bixafen]	1.4 ± 0.1	2.3	3.2 ± 0.5	1.3	1.8 ± 0.7	1.0	1.3 ± 0.2	1.5	2.1 ± 0.6	1.3	1.8 ± 0.4	1.1	1.5 ± 0.6	83.8	102	219	102	70.1	111	171	EC50 ([8]; strain 09STIR20.3): 204 nM; EC50 ([8]; strain Flu21 (SDHC1_A84I)): 959 nM; EC50 ([8]; strain IPO323): 106 nM; EC50 ([8]; strain IPO94269): 109 nM; EC50 ([8]; strain KO_SDHC1_T1): 710 nM; EC50 ([8]; strain KO_SDHC1_T3): 447 nM; EC50 ([8]; strain KO_SDHC3_T4): 204 nM; EC50 ([8]; strain KO_SDHC3_T13): 180 nM; EC50 ([8]; strain pTet::SDHC3_I78A_T1): 94.3 nM; EC50 ([8]; strain pTet::SDHC3_I78A_T5): 174 nM; EC50 ([8]; strain pTet::SDHC3_I78A_T15): 104 nM; EC50 ([8]; strain pTet::SDHC3_I78A_T35): 27.7 nM; EC50 ([8]; strain pTet::SDHC3_T1): 141 nM; EC50 ([8]; strain pTet::SDHC3_T2): 185 nM; EC50 ([8]; strain pTet::SDHC3_T3): 120 nM; EC50 ([8]; strain pTet::SDHC3_T7): 192 nM
